Measurements as given in patent US11613542B2, “Sulfonylureas and sulfonylthioureas as NLRP3 inhibitors” (Inflazome Limited, priority 2017, dated 2023).
Counter-ions that a name gives are not always drawn.

Assays:
[1] = biological target: T1, NLRP3 (Homo sapiens, UniProt Q96P20); assay: THP-1 cells pyroptosis assay; format: cell-based; set-up: Seed THP-1 cells (25,000 cells/well) containing 1.0 μg/ml LPS; host or cells: THP-1 cells, LPS-primed, nigericin-stimulated; details: THP-1 cells, 1.0 μg/ml LPS, compound 3 hrs, nigericin 5 μM 1 hr, resazurin readout; read-out: THP IC50
T1 sequence (Q96P20 whole entry): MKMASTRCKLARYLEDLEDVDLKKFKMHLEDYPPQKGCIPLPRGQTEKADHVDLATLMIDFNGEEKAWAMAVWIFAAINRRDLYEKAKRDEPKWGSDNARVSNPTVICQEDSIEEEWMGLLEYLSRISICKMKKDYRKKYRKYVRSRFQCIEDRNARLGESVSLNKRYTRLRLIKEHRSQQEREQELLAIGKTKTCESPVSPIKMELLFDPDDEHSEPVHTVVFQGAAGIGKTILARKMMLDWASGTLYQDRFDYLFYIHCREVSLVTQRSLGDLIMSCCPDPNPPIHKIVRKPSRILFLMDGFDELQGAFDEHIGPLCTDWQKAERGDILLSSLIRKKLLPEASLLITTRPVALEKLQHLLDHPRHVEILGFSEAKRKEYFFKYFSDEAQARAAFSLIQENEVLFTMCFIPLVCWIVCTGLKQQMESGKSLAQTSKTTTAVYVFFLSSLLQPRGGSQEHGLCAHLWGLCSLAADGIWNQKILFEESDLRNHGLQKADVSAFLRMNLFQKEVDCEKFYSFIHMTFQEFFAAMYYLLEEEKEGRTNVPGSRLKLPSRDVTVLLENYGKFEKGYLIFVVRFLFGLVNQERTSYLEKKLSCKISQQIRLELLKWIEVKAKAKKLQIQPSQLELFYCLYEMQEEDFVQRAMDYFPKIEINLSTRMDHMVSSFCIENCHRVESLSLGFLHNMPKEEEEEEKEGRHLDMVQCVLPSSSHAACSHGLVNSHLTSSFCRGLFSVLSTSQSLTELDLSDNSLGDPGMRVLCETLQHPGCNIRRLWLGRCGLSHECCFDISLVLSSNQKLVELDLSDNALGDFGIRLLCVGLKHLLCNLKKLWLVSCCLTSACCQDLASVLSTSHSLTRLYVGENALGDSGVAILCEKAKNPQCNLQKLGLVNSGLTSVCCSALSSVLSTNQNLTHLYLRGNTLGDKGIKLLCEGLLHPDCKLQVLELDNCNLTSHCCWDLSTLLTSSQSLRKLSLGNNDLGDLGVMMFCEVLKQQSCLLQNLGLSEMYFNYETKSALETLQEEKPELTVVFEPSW
In short: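 THP-1 cells (25,000/well) in serum-free RPMI with 1.0 μg/ml LPS, treated with compound (8-point half-log dilution, 10 μM top, 0.1% DMSO), then nigericin 5 μM final. Viability read by resazurin (100 μM final, 1-2 h, 37° C) fluorescence Ex 560/Em 590 nm; IC50 from 4-parameter variable-slope fit.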

[2] = Pharmacokinetic parameters in male Sprague Dawley rats (intravenous and oral administration); format: in vivo; details: dose per compound (mg/kg)
In short: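 IV dosing via tail vein (solution in water or DMSO:PBS 10:90) and oral dosing (water or DMSO:water 10:90); some oral groups fasted overnight. Serial plasma sampled at 8, 9 or 12 time-points up to 24 h post dose. PK parameters derived from LC-MS/MS plasma concentrations.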

[3] = biological target: T1, NLRP3; assay: Human whole blood IL1β release assay; format: cell-based; set-up: Human whole blood in Li-heparin tubes was obtained from healthy donors; from tissue; host or cells: human whole blood from healthy donors, LPS-primed, nigericin-stimulated; details: human whole blood, 1 μg/ml LPS, compound 3 hrs, nigericin 10 μM 1 hr, IL-1β AlphaLisa; read-out: HWB IC50
In short: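 Healthy-donor human whole blood (Li-heparin) primed with 1 μg/ml LPS, with compound (8-point half-log, 10 μM top) or 0.1% DMSO for 3 h at 37 °C, then 10 μM nigericin (final) for 1 h. Supernatant IL-1β read by AlphaLISA; IC50 from 4-parameter variable-slope fit.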

[4] = intravenous administration, rat plasma
[5] = oral administration, rat plasma

Row | SMILES | IC50 [1] [nM] | AUC [2, 4] [ng·h/mL] | Cl [2, 4] [mL/min/kg] | T1/2 [2, 4] [min] | Vdss [2, 4] [L/kg] | IC50 [3] [nM] | AUC [2, 5] [ng·h/mL] | Cl/F [2, 5] [mL/min/kg] | Cmax [2, 5] [ng/mL] | T1/2 [2, 5] [min] | Tmax [2, 5] [min] | bioavailability ([2]; oral administration, rat)
1 | CC(C)c1cccc(C(C)C)c1NC(=O)NS(=O)(=O)c1cc(C(=O)N(C)C)n(C)n1 [Example 167, 3-(N-((2,6-Diisopropylphenyl)carbamoyl)sulfamoyl)-N,N,1-trimethyl-1H-pyrazole-5-carboxamide, sodium salt] | < 640 | 333.7 | 48.7 | 30 | 0.99 | < 400 | – | – | – | – | – | –
2 | CN(C)C(=O)c1cc(S(=O)(=O)NC(=O)Nc2c3c(cc4c2CCC4)CCC3)nn1C [Example 169, 3-(N-((1,2,3,5,6,7-Hexahydro-s-indacen-4-yl)carbamoyl)sulfamoyl)-N,N,1-trimethyl-1H-pyrazole-5-carboxamide, sodium salt] | < 160 | 3389.9 | 24.8 | 1520 | 17.78 | < 400 | 1052.0 | 49.5 | 599.6 | 204 | 15 | 62.0
3 | CN(CCO)C(=O)c1cc(S(=O)(=O)NC(=O)Nc2c3c(cc4c2CCC4)CCC3)nn1C [Example 176, 3-(N-((1,2,3,5,6,7-Hexahydro-s-indacen-4-yl)carbamoyl)sulfamoyl)-N-(2-hydroxyethyl)-N,1-dimethyl-1H-pyrazole-5-carboxamide, partial ammonium salt] | < 160 | 786.6 | 114.1 | 18 | 2.37 | < 400 | – | – | – | – | – | –
